Source: patent US10626094B2 (La Jolla Institute of Allergy & Immunology, priority 2014, dated 2020)
pIC50, pKd: −log10 of the molar value.

Tests used:
[1] = molecular target: recombinant human LMPTP-A (Homo sapiens (Human), UniProt P24666); test: isothermal calorimetry (ITC) binding
Experimental: ML400 analog G53 (Table A) binds to LMPTP. ITC was performed using recombinant human LMPTP-A and a derivative of Compound D1, G53. Kd=0.9 microM.

[2] = molecular target: LMPTP-A (Low Molecular Weight Protein Tyrosine Phosphatase-A) enzyme (Homo sapiens (Human), UniProt P24666); test: LMPTP primary screening / LMPTP (OMFP) enzyme inhibition assay, fluorescence intensity; format: biochemical; conditions: LMPTP-A, OMFP substrate, method of Example 2; read-out: IC50
LMPTP-A (Low Molecular Weight Protein Tyrosine Phosphatase-A) enzyme, sequence (P24666 whole entry): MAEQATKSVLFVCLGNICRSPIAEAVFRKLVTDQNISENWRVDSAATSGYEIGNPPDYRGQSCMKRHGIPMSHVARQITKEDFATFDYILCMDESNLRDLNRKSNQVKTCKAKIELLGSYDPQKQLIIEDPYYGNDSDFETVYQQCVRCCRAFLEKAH
How it was run: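 Single-concentration screen, test compounds 20 μM final, […]. Enzyme (0.625 nM) and OMFP (400 μM) react 50 min at room temp, dark, in Bis-Tris buffer pH 6.0 containing DTT 1 mM and Triton X-100 0.01%. Read-out: fluorescence intensity.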

recombinant human LMPTP-A, sequence (P24666 whole entry): as above

pKd [1]: 6.05
pIC50 [2]: 5.30 to 6.10
Compound: COc1ccc(-c2cc(Nc3cccc(CC4CCNCC4)c3)c3ccccc3n2)cc1 [Compound G53, [2-(4-methoxyphenyl)(4-quinolyl)][3-(4-piperidylmethyl)phenyl]amine]
